Laboratory results published in US20200164005A1, “PHARMACEUTICAL COMPOSITIONS OF A BILE ACID DERIVATIVE AND MICROBIOME AND USES THEREOF” (Intercept Pharmaceuticals, Inc., priority 2017, published 2020).

Assays:
[1] = tested on: bacterial strains found in the human small intestine; test: Inhibition of bacterial growth by bile acids, microbroth dilution, optical density at 630 nm; format: cell-based; details: aerobic or anaerobic
Experimental: The toxicity of several bile acids to various gut microbiome species was examined. Representative species were exposed to different bile acids at a range of concentrations under either aerobic or anaerobic condition, and the growth of the species at these concentrations was measured by determining the optical density of the culture.
Lactobacillus casei CP was purchased from Custom Probiotics Inc. (Glendale, Calif.) as L. casei Custom Probiotic Powder (strain confirmed by Sanger sequencing of the 16S gene). Pediococcus pentosaceus KE-99 was purchased from Probiohealth (Beverly Hills, Calif.) as KE-99 LACTO Tablet (strain confirmed by Sanger sequencing of the 16S gene). L. casei 393, Streptoccocus thermophilus LMD-9, Akkermansia muciniphila Muc, and Veillonella parvula Te3 were purchased from the American Type Culture Collection (ATCC, Manassas, Va.). Lactococcus lactis NZ9000 was purchased from BOCA Scientific (Boca Raton, Fla.). Escherichia coli Nissle was obtained from Dr. Mark Goulian (University of Pennsylvania, Philadelphia, Pa.).
L. casei, P. pentasaceus, and L. lactis were grown in de Man, Rogosa, and Sharpe (MRS) medium (Anaerobe Systems, Morgan Hill, Calif.); E. coli was grown in lysogeny broth (LB) medium (Fisher Scientific, USA); S. thermophilus and A. muciniphila were grown in brain heart infusion (BHI) medium (Fisher Scientific, USA and Anaerobe Systems, Morgan Hill, Calif.), and; V. parvula was grown in reinforced clostridial medium (Fisher Scientific, USA). Aerobic cultures were incubated at 37° C.; anaerobic cultures were incubated at 37° C. in an anaerobic glove box (Coy Laboratories, Grass Lake, Mich.).
Glycochenodeoxycholic, glycocholic, and taurocholic acids were purchased from Sigma Aldrich (St. Louis, Mo.). Obeticholic acid was provided by Intercept Pharmaceuticals, Inc. (New York, N.Y.).
Inhibition of bacterial growth by bile acids was determined by the microbroth dilution method. Plates were prepared with 100 uL of medium containing the appropriate concentrations of bile acid. Wells were inoculated with 1 uL of an overnight culture, covered, and incubated overnight (3 days for A. muciniphila and V. parvula, which are slow growing organisms). Growth was measured via optical density at 630 nm, and measurements were zeroed against wells containing the appropriate bile acid level with no bacteria. All tests were performed in triplicate. Data is expressed as the percent (%) reduction in growth, which was calculated against controls (i.e., no bile acids). The responses of representative species to different concentrations of bile acids are illustrated by the heat maps shown in FIGS. 53A-53D.

[2] = tested on: Lactococcus lactis, Streptococcus thermophilus, and Lactobacillus casei/paracasei; test: Minimal inhibitory concentrations (MIC) of bile acids and OCA, aerobic and anaerobic; format: cell-based; details: millimolar range; aerobic and anaerobic
Text: FIGS. 58A-58B: Minimal inhibitory concentrations (MICs) of selected Gram-positive bacterial species in response treatment with two endogenous bile acids and OCA. […] N=3 per measurement. […] N=3 per measurement.
a (Begley et al., FEMS Microbiol Rev. 29, 625-651 (2005)), and conducted genomic analysis is consistent with the notion that specific Gram-positive taxa become proportionally more abundant during OCA administration due to enhanced proliferation. FXR-dependent inhibition of endogenous bile acid synthesis by OCA may reduce the growth inhibitory effects on Gram-positive bacterial species that are normally sensitive to bile acids. To determine if the three bacterial species with the greatest representation of pathways associated with OCA (FIG. 57A) are sensitive to bile acids, the species-specific minimal inhibitory concentrations (MIC) of the two most predominant bile acids in the human small intestine, glycochenodeoxycholic acid (GCDCA) and glycocholic acid (GCA) were determined (FIG. 58A). Since the environment of the small intestinal lumen may transition from an aerobic to anaerobic state along its length (He et al., Proceedings of the National Academy of Sciences of the United States of America, 96, 4586-4591 (1999)), MICs were determined under both aerobic and anaerobic conditions. […] Consistent with this notion, it has been shown that bile salt hydrolases (BSH), enzymes that are unique to bacteria resident in the mammalian gut where they can enhance bile acid tolerance (Begley et al., FEMS Microbiol Rev. 29, 625-651 (2005)), are missing from the genome of S. thermophilus, which is induced by OCA. It can be supported by showing that these species are sensitive to growth inhibition in vitro when exposed to physiologically-relevant concentrations of conjugated bile acids found in the small intestine. […] Since OCA is a bile acid analogue possibly capable of inhibiting bacterial growth, the MICs of OCA for the same bacterial species were determined (FIG. 58B). […] These findings support the notion that OCA treatment leads to the increased growth of bile acid sensitive bacterial taxa by suppressing endogenous bile acid synthesis.

In the case of C[C@H](CCC(=O)NCC(=O)O)[C@H]1CC[C@H]2[C@@H]3[C@H](O)C[C@@H]4C[C@H](O)CC[C@]4(C)[C@H]3C[C@H](O)[C@]12C [GCA, glycocholic acid, reference compound], the “growth inhibitory effects on various strains of gram positive bacteria” value (from here on “growth inhibitory effects”) [1] is reported as “differential growth inhibitory effects” and the “growth of all three species at physiologically relevant concentrations” value [2] is reported as “significantly inhibited”.

CC(CCC(=O)NCC(=O)O)C1CCC2C3C(O)CC4CC(O)CCC4(C)C3CCC12C (centres unmarked) [GCDCA, glycochenodeoxycholic acid, reference compound] was tested, and the “growth inhibitory effects” value [1] was “differential growth inhibitory effects” and the “growth of all three species at physiologically relevant concentrations” value [2] was “significantly inhibited”.

For C[C@H](CCC(=O)NCCS(=O)(=O)O)[C@H]1CC[C@H]2[C@@H]3[C@H](O)C[C@@H]4C[C@H](O)CC[C@]4(C)[C@H]3C[C@H](O)[C@]12C [TCA, taurocholic acid], the “growth inhibitory effects” value [1] was “differential growth inhibitory effects”.
